IC50 data for ten compounds are collected here from patent US8461339B2, “Pharmaceutical compounds” (Sentinel Oncology Limited, priority 2008, dated 2013).

One assay deals with T1, Flt3 (h) (Homo sapiens, UniProt P36888).
T1 construct: purchased Millipore
T1 sequence (P36888 27-993): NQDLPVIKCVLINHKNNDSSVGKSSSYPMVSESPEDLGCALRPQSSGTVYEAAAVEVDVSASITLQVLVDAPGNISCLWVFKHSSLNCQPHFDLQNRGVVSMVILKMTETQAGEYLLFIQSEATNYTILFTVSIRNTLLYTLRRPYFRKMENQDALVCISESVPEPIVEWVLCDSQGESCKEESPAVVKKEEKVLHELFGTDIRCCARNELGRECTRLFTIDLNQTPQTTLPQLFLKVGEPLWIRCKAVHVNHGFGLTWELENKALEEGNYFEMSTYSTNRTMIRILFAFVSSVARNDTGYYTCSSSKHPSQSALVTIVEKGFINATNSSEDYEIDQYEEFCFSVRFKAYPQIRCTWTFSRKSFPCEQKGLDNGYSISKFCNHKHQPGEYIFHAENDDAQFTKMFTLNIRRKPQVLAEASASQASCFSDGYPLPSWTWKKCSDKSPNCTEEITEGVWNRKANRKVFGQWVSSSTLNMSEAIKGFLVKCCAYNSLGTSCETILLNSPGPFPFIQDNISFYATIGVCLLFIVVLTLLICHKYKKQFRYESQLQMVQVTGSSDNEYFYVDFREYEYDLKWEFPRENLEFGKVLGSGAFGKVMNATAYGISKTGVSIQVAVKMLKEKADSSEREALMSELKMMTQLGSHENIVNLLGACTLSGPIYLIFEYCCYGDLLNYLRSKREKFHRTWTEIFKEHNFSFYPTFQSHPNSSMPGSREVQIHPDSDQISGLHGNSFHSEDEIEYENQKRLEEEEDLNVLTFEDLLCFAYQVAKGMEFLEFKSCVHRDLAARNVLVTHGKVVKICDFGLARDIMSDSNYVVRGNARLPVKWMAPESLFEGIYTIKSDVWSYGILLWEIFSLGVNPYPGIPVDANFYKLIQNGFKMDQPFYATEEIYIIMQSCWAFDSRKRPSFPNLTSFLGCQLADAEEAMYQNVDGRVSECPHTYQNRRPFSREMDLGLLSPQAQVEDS
As to the kind of experiment: Kinase inhibition assay, Flt3 (h) (Millipore, 33P-ATP filter assay). In kind it is biochemical. The procedure: (§1) Compounds of the invention can be screened for activity against a range of protein kinases using the assays set out below. Kinase inhibition assays were carried out by Millipore, Dundee Technology Park, Dundee, UK.
(§2) In a final reaction volume of 25 μL, Flt3 (h) (5-10 mU) is incubated with 8 mM MOPS pH 7.0, 0.2 mM EDTA, 50 μM EAIYAAPFAKKK, 10 mM MgAcetate and [[…]-33P-ATP] (specific activity approx. 500 cpm/pmol, concentration as required). The reaction is initiated by the addition of the MgATP mix. After incubation for 40 minutes at room temperature, the reaction is stopped by the addition of 5 μL of a 3% phosphoric acid solution. 10 μL of the reaction is then spotted onto a P30 filtermat and washed three times for 5 minutes in 75 mM phosphoric acid and once in methanol prior to drying and scintillation counting.

For the next assay, the target named is T2, Flt4 (h) (Homo sapiens, UniProt P35916).
T2 construct: purchased Millipore
As to the kind of experiment: Kinase inhibition assay, Flt4 (h) (Millipore, 33P-ATP filter assay). The class given is biochemical. The procedure:
as §1
as §2, with “μL, Flt4” for “μL, Flt3”, “EDTA, 500” for “EDTA, 50”, “μM GGEEEEYFELVKKKK,” for “μM EAIYAAPFAKKK,”

In another assay the target is T3, Yes (h) (Homo sapiens, UniProt P07947).
T3 construct: purchased Millipore
Kind of assay: Kinase inhibition assay, Yes (h) (Millipore, 33P-ATP filter assay). In kind it is biochemical. The settings on record: read-out: IC50 against Yes kinase. The procedure: as §1
as §2, with “μl, Yes” for “μL, Flt3”, “0.1 mg/ml poly(Glu, Tyr) 4:1,” for “50 μM EAIYAAPFAKKK,”, “[γ-33P-ATP]” for “[[…]-33P-ATP]”, “μl” for “μL”, “Filtermat A” for “P30 filtermat”

A further assay addresses T4, KDR (h) (Homo sapiens, UniProt P35968).
T4 construct: purchased Millipore
As to the kind of experiment: Kinase inhibition assay, KDR (h) (Millipore, 33P-ATP filter assay). The class given is biochemical. The settings on record: read-out: IC50 against KDR kinase. The procedure: as §1
as §2, with “KDR” for “Flt3”, “0.33 mg/mL myelin basic protein,” for “50 μM EAIYAAPFAKKK,”, “Mg Acetate” for “MgAcetate”, “[γ-33P-ATP]” for “[[…]-33P-ATP]”

Assay [1] relates to human HT29 colon carcinoma cells. Kind of assay: HT29 colony forming assay. The class given is cell-based. Particulars: HT-29, 240 h, 10 days incubation, colonies counted. The method, then: The ability of compounds of the invention to prevent growth of discrete colonies of human HT29 colon carcinoma cells over a 10 day time course can be measured using the following protocol: • 1. HT29 cells (ECACC No. 91072201) are seeded in 24-well plates at a concentration of 75 cells per well and allowed to adhere overnight prior to addition of compound or vehicle control. • 2. Test compounds are prepared from 10 mM DMSO stocks to give a final concentration range of 10 μM, 3 μM, 1 μM, 0.3 μM, 0.1 μM, 0.03 μM, 0.01 μM and vehicle control. The DMSO content is constant at 0.1%. • 3. Test compounds are incubated with the cells for 10 days at 37° C. 5% CO2 in a humidified atmosphere. • 4. Colonies are fixed using Carnoy's Fixative (75% methanol, 25% acetic acid) for 5 minutes, and allowed to air dry. • 5. Colonies are stained using 0.4% (w/v) crystal violet for 2 minutes. • 6. Colonies (containing more than 50 cells) are counted by eye and data analysed using a 4-parameter logistic equation in GraphPad Prism.

A further assay deals with HCT116 cells. As to the kind of experiment: Anti-proliferative activity, Alamar Blue assay. The settings on record: Homo sapiens, HCT-116, 72 h incubation, read-out: cell proliferation IC50. The class given is cell-based. The procedure:
The anti-proliferative activities of compounds of the invention are determined by measuring the ability of the compounds to inhibition of cell growth in a number of cell lines. Inhibition of cell growth is measured using the Alamar Blue assay
The following protocol was used: • 1) HT29, HCT116 or Colo205 cells were seeded at an appropriate density and allowed to adhere overnight. • 2) Test compounds were prepared from 10 mM DMSO stocks to give a final concentration range as shown on the graphs. DMSO was constant throughout each experiment. • 3) Test compounds were incubated with the cells for 72 h at 37° C. 5% CO2 in a humidified atmosphere. • 4) Alamar blue 10% (v/v) was then added and incubated for a further 6 h, and fluorescent product detected using the BMG FLUOstar plate reader. • 5) Data was analysed using a 4-parameter logistic equation in Graph Pad Prism.
On the technique in general: Resazurin is reduced to fluorescent resorufin, in cell work by metabolically active cells.

T2 sequence (P35916 25-1363): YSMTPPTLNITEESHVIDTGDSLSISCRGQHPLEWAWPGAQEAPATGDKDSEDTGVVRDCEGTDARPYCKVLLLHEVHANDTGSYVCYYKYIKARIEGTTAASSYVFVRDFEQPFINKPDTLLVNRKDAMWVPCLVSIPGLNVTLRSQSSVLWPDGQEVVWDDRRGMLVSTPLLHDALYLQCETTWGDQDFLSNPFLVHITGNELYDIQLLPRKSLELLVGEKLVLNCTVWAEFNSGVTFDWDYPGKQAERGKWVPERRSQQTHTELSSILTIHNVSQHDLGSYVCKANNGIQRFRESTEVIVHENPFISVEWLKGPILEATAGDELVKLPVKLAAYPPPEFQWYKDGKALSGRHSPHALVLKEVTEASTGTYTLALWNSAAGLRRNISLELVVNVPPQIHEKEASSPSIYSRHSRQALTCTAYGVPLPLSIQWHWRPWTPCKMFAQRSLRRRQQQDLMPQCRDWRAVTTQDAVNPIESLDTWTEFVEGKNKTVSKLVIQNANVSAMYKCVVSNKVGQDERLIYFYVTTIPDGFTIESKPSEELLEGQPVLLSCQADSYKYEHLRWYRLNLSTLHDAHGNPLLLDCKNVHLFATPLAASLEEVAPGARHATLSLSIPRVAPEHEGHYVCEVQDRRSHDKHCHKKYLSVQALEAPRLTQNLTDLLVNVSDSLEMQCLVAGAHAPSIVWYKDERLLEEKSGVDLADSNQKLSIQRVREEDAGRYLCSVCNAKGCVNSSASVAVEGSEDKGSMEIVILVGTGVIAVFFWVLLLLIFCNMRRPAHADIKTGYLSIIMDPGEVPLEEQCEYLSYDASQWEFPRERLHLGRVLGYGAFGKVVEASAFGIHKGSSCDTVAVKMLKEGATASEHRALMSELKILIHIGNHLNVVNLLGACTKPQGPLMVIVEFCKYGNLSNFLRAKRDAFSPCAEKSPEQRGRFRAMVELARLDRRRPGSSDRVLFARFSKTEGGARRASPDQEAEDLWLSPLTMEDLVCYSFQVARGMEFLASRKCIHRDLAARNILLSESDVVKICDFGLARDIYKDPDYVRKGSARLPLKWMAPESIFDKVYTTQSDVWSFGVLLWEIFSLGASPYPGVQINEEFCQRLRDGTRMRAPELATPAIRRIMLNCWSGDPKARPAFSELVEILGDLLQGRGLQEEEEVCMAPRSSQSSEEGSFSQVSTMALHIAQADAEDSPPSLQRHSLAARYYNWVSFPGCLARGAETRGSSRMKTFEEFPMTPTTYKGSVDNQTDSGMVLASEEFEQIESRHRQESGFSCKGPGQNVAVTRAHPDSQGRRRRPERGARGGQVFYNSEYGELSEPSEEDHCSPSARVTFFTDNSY
T3 sequence (P07947 whole entry): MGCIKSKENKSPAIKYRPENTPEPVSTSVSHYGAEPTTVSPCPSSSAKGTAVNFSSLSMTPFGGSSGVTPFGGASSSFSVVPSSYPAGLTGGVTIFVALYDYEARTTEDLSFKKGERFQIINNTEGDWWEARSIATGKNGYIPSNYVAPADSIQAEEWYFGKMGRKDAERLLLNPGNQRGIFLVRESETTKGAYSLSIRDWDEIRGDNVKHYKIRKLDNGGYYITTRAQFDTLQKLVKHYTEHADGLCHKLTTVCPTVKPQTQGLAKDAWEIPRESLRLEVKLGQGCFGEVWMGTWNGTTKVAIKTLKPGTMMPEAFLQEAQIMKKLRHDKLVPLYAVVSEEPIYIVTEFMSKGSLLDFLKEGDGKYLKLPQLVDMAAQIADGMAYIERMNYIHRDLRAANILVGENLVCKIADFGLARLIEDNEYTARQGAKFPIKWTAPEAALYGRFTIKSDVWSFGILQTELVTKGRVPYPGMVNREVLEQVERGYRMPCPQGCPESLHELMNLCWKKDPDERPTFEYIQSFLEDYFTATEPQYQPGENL
T4 sequence (P35968 20-1356): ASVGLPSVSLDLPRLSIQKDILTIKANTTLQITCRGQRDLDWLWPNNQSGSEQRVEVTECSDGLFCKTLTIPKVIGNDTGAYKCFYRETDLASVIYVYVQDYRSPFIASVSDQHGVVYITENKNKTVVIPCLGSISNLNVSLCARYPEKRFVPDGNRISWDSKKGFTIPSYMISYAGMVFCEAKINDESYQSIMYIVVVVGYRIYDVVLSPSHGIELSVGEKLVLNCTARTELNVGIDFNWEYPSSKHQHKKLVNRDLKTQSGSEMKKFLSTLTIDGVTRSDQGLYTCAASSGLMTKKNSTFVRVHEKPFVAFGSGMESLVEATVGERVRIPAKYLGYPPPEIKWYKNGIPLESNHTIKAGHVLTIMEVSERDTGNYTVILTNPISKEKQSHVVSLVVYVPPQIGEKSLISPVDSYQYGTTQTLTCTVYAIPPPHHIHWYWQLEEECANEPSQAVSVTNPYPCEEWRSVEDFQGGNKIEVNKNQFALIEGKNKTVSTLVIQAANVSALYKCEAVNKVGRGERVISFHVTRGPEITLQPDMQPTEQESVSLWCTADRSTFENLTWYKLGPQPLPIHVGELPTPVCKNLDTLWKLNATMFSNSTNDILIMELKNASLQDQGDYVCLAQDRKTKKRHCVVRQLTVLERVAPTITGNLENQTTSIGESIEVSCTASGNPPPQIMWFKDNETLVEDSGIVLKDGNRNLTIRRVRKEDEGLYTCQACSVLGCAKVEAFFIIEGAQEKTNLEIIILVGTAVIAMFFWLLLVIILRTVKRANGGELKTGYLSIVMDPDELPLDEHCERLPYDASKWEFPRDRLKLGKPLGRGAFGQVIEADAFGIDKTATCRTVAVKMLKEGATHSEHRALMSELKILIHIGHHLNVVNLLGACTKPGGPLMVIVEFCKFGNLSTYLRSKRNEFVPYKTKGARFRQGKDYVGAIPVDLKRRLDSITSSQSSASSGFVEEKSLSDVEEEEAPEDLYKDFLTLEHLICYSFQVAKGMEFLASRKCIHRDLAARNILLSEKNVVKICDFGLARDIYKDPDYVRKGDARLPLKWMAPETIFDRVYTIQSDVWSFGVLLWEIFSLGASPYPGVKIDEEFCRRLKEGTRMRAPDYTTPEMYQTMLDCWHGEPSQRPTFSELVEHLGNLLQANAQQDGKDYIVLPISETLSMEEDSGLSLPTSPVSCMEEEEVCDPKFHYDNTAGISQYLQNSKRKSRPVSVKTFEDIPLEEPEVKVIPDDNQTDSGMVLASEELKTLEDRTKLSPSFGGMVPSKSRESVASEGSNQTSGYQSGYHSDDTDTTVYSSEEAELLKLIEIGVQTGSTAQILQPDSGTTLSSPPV

Consider `O=C(CO)N1CCN(Cc2ccnc(Nc3cc4ccccc4cn3)c2)CC1` [Example 23B, 2-Hydroxy-1-{4-[2-(isoquinolin-3-ylamino)-pyridin-4-ylmethyl]-piperazin-1-yl}-ethanone], for which the IC50 at Flt3 (h) and on Flt4 (h) was less than 100 nM each time.
As for `CN(C)C(=O)N1CCN(Cc2ccnc(Nc3cc4ccccc4cn3)c2)CC1` [Example 20, 4-[2-(Isoquinolin-3-ylamino)-pyridin-4-ylmethyl]-piperazine-1-carboxylic acid dimethylamide], the IC50 against Flt3 (h) and on Flt4 (h) was less than 100 nM each time.
Turning to `Fc1ccc2cc(Nc3cc(CN4CCCC4)ccn3)ncc2c1` [Example 18, 7-Fluoroisoquinolin-3-yl-(4-pyrrolidin-1-ylmethyl-pyridin-2-yl)-amine], the IC50 against Flt3 (h) and against Flt4 (h) was less than 100 nM in each case.
Consider `c1ccc2cc(Nc3cc(CN4CCCC4)ccn3)ncc2c1` [Example 1, Isoquinolin-3-yl-(4-pyrrolidin-1-ylmethyl-pyridin-2-yl)-amine], for which the IC50 on Yes (h) is less than 5000 nM; against Flt3 (h), less than 100 nM; at KDR (h), less than 5000 nM; in assay [1] it was 1380 nM; on Flt4 (h), less than 500 nM; in the assay on HCT116 cells, less than 25000 nM.
In the case of `Clc1ccc2cc(Nc3cc(CN4CCCC4)ccn3)ncc2c1` [Example 14, 7-Chloroisoquinolin-3-yl-(4-pyrrolidin-1-ylmethyl-pyridin-2-yl)-amine], the IC50 is less than 100 nM on Flt3 (h) and greater than 100 nM at Flt4 (h).
Take `c1ccc2cc(Nc3cc(CN4CCNCC4)ccn3)ncc2c1` [Example 21B, Isoquinolin-3-yl-(4-piperazin-1-ylmethyl-pyridin-2-yl)-amine]: the IC50 at Flt3 (h) is less than 5000 nM; against Flt4 (h), less than 500 nM.
For `CC(=O)N1CCN(Cc2ccnc(Nc3cc4ccccc4cn3)c2)CC1` [Example 22, 1-[4-[2-(Isoquinolin-3-ylamino)-pyridin-4-ylmethyl]-piperazin-1-yl]-ethanone], in that order: less than 100 nM and less than 500 nM.
Take `NC(=O)N1CCN(Cc2ccnc(Nc3cc4ccccc4cn3)c2)CC1` [Example 21C, 4-[2-(Isoquinolin-3-ylamino)-pyridin-4-ylmethyl]-piperazine-1-carboxylic acid amide]: the IC50 against Flt3 (h) is less than 100 nM; on Flt4 (h), less than 500 nM.
For the compound `CNC(=O)N1CCN(Cc2ccnc(Nc3cc4ccccc4cn3)c2)CC1` [Example 19, 4-[2-(Isoquinolin-3-ylamino)-pyridin-4-ylmethyl]-piperazine-1-carboxylic acid methylamide], the IC50 at Flt3 (h) and at Flt4 (h) was less than 100 nM each time.
As for `COc1ccc2cnc(Nc3cc(CN4CCCC4)ccn3)cc2c1` [Example 17, (6-Methoxy-isoquinolin-3-yl)-(4-pyrrolidin-1-ylmethyl-pyridin-2-yl)-amine], the IC50 against Flt3 (h) and against Flt4 (h) was less than 100 nM each time.
